Assay results published in EP4289427A1, “DIHYDRO[1,8]NAPHTHYRIDIN-7-ONE AND PYRIDO[3,2-B][1,4]OXAZIN-3-ONE FOR USE IN TREATING CANCER, AND METASTASES IN PARTICULAR” (Anagenesis Biotechnologies, priority 2022, dated 2023).

Experiments:
MDA-MB-231 cells = assay: Cytotoxicity assay (CellTiter-Glo 2.0) on MDA-MB-231 cells; format: cell-based, Human; conditions: incubation 3 days; for IC50: Homo sapiens, 72 h
Method: (§1) Cytotoxicity assays consist in treating cells with compounds and assessing remaining viability after a defined incubation time, depending on the cell line. CellTiter-Glo® 2.0 reagent allows viability measurement by quantification of ATP present, which is an indicator of metabolically active cells.
(§2) The cancer cell lines were cultivated in their respective growth medium (see tables 6a and 6b). On day 0 of the cytotoxicity assay, the cells were harvested and seeded into a 384-well plate at a defined density in their respective growth medium (see tables 6a and 6b). Compounds to be tested were then added onto the cells and incubated for a defined duration (see tables 6a and 6b). Following incubation, CellTiter-Glo® 2.0 reagent (cat.no. G9241 from Promega) was added into the wells (vol/vol, according to the manufacturer's recommendations), plates were gently shaken and incubated for 10 minutes in the dark at room temperature. Bioluminescence was then measured with a multimode plate reader (Victor Nivo from Perkin Elmer), and cell viability and relative IC50 were determined. Table 6a: Cancer cell characteristics, culture and cytotoxic assay conditions

4T1 cells = assay: Cytotoxicity assay (CellTiter-Glo 2.0) on 4T1 cells; format: cell-based, Mouse; conditions: incubation 2 days; for IC50: Mus musculus, 48 h
Method: as §1, §2

RD cells = assay: Cytotoxicity assay (CellTiter-Glo 2.0) on RD cells; format: cell-based, Human; conditions: for IC50: Homo sapiens
Method: as §1, §2

EoL-1 cells = assay: Cytotoxicity assay (CellTiter-Glo 2.0) on EoL-1 cells; format: cell-based, Human; conditions: incubation 1 day; for IC50: Homo sapiens, EOL1, 24 h
Method: as §1, §2

HUVECs = assay: Tube formation assay (anti-angiogenic activity); format: cell-based, human; conditions: for IC50: Homo sapiens, HUVEC
Excerpt: Angiogenesis is a phenomenon that includes different processes, such as endothelial cell proliferation, migration and differentiation that lead to the formation of new blood vessels. Tube formation assay is a standard in vitro test to assess angiogenesis: briefly, human Umbilical Vein Endothelial cells (hereafter "HUVECs") cultivated on a gelled basement matrix spontaneously proliferate, migrate and differentiate to form tube-like structures, that appear elongated and that connect to each other to form a network.
HUVECs were cultivated in Endothelial Cell Growth Medium (cat.no. C-22010 from Promocell) supplemented with 1% PenStrep (hereafter "HUVEC medium"). On day 0, HUVECs were harvested and transferred into a 384-well plate precoated with 10 µl/well of Cultrex UltiMatrix Reduced Growth factor basement membrane (cat.no. BME001-10 from BioTechne), according to the manufacturer's instructions, at a density of 5000 cells/well in HUVEC medium. Compounds to be tested were then added onto the cells and incubated for 16 to 18 hours at 37°C. After this incubation period, the cells were stained with calcein-AM (cat.no. 10462052 from Fisher Scientific) and pictures were acquired using a confocal fluorescent microscope (IXM from Molecular Devices). Tube formation was measured with MetaXpress® Software.

Compound: CC(C)(C)c1cc(NC(=O)Nc2ccc(Oc3ccnc4c3CCC(=O)N4)cc2C(F)(F)F)n(-c2cccc(F)c2)n1 [Compound 015, 1-[5-tert-butyl-2-(3-fluorophenyl)pyrazol-3-yl]-3-[4-[(7-oxo-6,8-dihydro-5H-1,8-naphthyridin-4-yl)oxy]-2-(trifluoromethyl)phenyl]urea]
- IC50 (MDA-MB-231 cells): 1 to 5 µM
- Cytotoxicity (MDA-MB-231 cells): ++ (50% ≤ cytotoxicity < 85%)
- IC50 (4T1 cells): < 1000 nM
- Cytotoxicity (4T1 cells): +++ (cytotoxicity ≥ 85%)
- Cytotoxicity (RD cells; 2 day-treatment): ++ (50% ≤ cytotoxicity < 85%)
- Cytotoxicity (RD cells; 4 day-treatment): ++ (50% ≤ cytotoxicity < 85%)
- IC50 (RD cells; 48 h, 2 day-treatment): 5 to 10 µM
- IC50 (RD cells; 96 h, 4 day-treatment): 1 to 5 µM
- IC50 (EoL-1 cells): 10 to 100 nM
- Cytotoxicity (EoL-1 cells): ++ (50% ≤ cytotoxicity < 85%)
- IC50 (HUVECs; incubation 16 to 18 hours): < 100 nM
- Angiogenesis inhibition (HUVECs; incubation 16 to 18 hours): +++ (angiogenesis inhibition ≥ 80%)

Compound: CC(C)(C)c1cc(NC(=O)Nc2ccc(Oc3ccnc4c3CCC(=O)N4)cc2C(F)(F)F)n(-c2cccc(CN3CCOCC3)c2)n1 [Compound 045, 1-[5-tert-butyl-2-[3-(morpholinomethyl)phenyl]pyrazol-3-yl]-3-[4-[(7-oxo-6,8-dihydro-5H-1,8-naphthyridin-4-yl)oxy]-2-(trifluoromethyl)phenyl]urea]
- IC50 (MDA-MB-231 cells): 1 to 5 µM
- Cytotoxicity (MDA-MB-231 cells): ++ (50% ≤ cytotoxicity < 85%)
- IC50 (4T1 cells): < 1000 nM
- Cytotoxicity (4T1 cells): +++ (cytotoxicity ≥ 85%)
- Cytotoxicity (RD cells; 2 day-treatment): + (20 % ≤ cytotoxicity < 50%)
- Cytotoxicity (RD cells; 4 day-treatment): + (20 % ≤ cytotoxicity < 50%)
- IC50 (RD cells; 48 h, 2 day-treatment): 5 to 10 µM
- IC50 (RD cells; 96 h, 4 day-treatment): 5 to 10 µM
- IC50 (EoL-1 cells): 10 to 100 nM
- Cytotoxicity (EoL-1 cells): ++ (50% ≤ cytotoxicity < 85%)
- IC50 (HUVECs; incubation 16 to 18 hours): 100 to 500 nM
- Angiogenesis inhibition (HUVECs; incubation 16 to 18 hours): +++ (angiogenesis inhibition ≥ 80%)

Compound: CN(C)Cc1ccc(-n2nc(C(C)(C)C)cc2NC(=O)Nc2ccc(Oc3ccnc4c3OCC(=O)N4)cc2C(F)(F)F)cc1 [Compound 049, 1-[5-tert-butyl-2-[4-(dimethylaminomethyl)phenyl]pyrazol-3-yl]-3-[4-[(3-oxo-4H-pyrido[3,2-b][1,4]oxazin-8-yl)oxy]-2-(trifluoromethyl)phenyl]urea]
- IC50 (MDA-MB-231 cells): 5 to 10 µM
- Cytotoxicity (MDA-MB-231 cells): +++ (cytotoxicity ≥ 85%)
- IC50 (4T1 cells): 1000 to 5000 nM
- Cytotoxicity (4T1 cells): +++ (cytotoxicity ≥ 85%)
- Cytotoxicity (RD cells; 2 day-treatment): +++ (cytotoxicity ≥ 85%)
- Cytotoxicity (RD cells; 4 day-treatment): +++ (cytotoxicity ≥ 85%)
- IC50 (RD cells; 48 h, 2 day-treatment): 5 to 10 µM
- IC50 (RD cells; 96 h, 4 day-treatment): 5 to 10 µM
- IC50 (EoL-1 cells): 10 to 100 nM
- Cytotoxicity (EoL-1 cells): ++ (50% ≤ cytotoxicity < 85%)
- IC50 (HUVECs; incubation 16 to 18 hours): 100 to 500 nM
- Angiogenesis inhibition (HUVECs; incubation 16 to 18 hours): +++ (angiogenesis inhibition ≥ 80%)

Compound: CSc1cc(Oc2ccnc3c2OCC(=O)N3)ccc1NC(=O)Nc1cc(C(C)(C)C)nn1C [Compound 022, 1-(5-tert-butyl-2-methyl-pyrazol-3-yl)-3-[2-methylsulfanyl-4-[(3-oxo-4H-pyrido[3,2-b][1,4]oxazin-8-yl)oxy]phenyl]urea]
- IC50 (MDA-MB-231 cells): 1 to 5 µM
- Cytotoxicity (MDA-MB-231 cells): ++ (50% ≤ cytotoxicity < 85%)
- IC50 (4T1 cells): 1000 to 5000 nM
- Cytotoxicity (4T1 cells): +++ (cytotoxicity ≥ 85%)
- Cytotoxicity (RD cells; 2 day-treatment): ++ (50% ≤ cytotoxicity < 85%)
- Cytotoxicity (RD cells; 4 day-treatment): ++ (50% ≤ cytotoxicity < 85%)
- IC50 (RD cells; 48 h, 2 day-treatment): 1 to 5 µM
- IC50 (RD cells; 96 h, 4 day-treatment): 1 to 5 µM
- IC50 (EoL-1 cells): < 1 nM
- Cytotoxicity (EoL-1 cells): +++ (cytotoxicity ≥ 85%)
- IC50 (HUVECs; incubation 16 to 18 hours): < 100 nM
- Angiogenesis inhibition (HUVECs; incubation 16 to 18 hours): ++ (80% > angiogenesis inhibition ≥ 50%)

Compound: CC(C)(C)c1cc(NC(=O)Nc2ccc(Oc3ccnc4c3CCC(=O)N4)cc2C(F)(F)F)n(-c2ccc(F)cc2F)n1 [Compound 029, 1-[5-tert-butyl-2-(2,4-difluorophenyl)pyrazol-3-yl]-3-[4-[(7-oxo-6,8-dihydro-5H-1,8-naphthyridin-4-yl)oxy]-2-(trifluoromethyl)phenyl]urea]
- IC50 (MDA-MB-231 cells): 5 to 10 µM
- Cytotoxicity (MDA-MB-231 cells): + (20 % ≤ cytotoxicity < 50%)
- IC50 (4T1 cells): 1000 to 5000 nM
- Cytotoxicity (4T1 cells): ++ (50% ≤ cytotoxicity < 85%)
- IC50 (EoL-1 cells): 10 to 100 nM
- Cytotoxicity (EoL-1 cells): +++ (cytotoxicity ≥ 85%)
- IC50 (HUVECs; incubation 16 to 18 hours): 100 to 500 nM
- Angiogenesis inhibition (HUVECs; incubation 16 to 18 hours): ++ (80% > angiogenesis inhibition ≥ 50%)

Compound: CSc1cc(Oc2ccnc3c2CCC(=O)N3)ccc1NC(=O)Nc1cc(C(C)(C)C)nn1-c1cccc(Cl)c1 [Compound 003, 1-(3-(tert-butyl)-1-(3-chlorophenyl)-1H-pyrazol-5-yl)-3-(2-(methylthio)-4-((7-oxo-5,6,7,8-tetrahydro-1,8-naphthyridin-4-yl)oxy)phenyl)urea]
- IC50 (MDA-MB-231 cells): 1 to 5 µM
- Cytotoxicity (MDA-MB-231 cells): ++ (50% ≤ cytotoxicity < 85%)
- IC50 (4T1 cells): < 1000 nM
- Cytotoxicity (4T1 cells): +++ (cytotoxicity ≥ 85%)
- Cytotoxicity (RD cells; 2 day-treatment): + (20 % ≤ cytotoxicity < 50%)
- Cytotoxicity (RD cells; 4 day-treatment): + (20 % ≤ cytotoxicity < 50%)
- IC50 (RD cells; 48 h, 2 day-treatment): 1 to 5 µM
- IC50 (RD cells; 96 h, 4 day-treatment): 5 to 10 µM

Compound: CC(C)(C)c1coc(NC(=O)Nc2ccc(Oc3ccnc4c3CCC(=O)N4)cc2C(F)(F)F)n1 [Compound 036]
- IC50 (MDA-MB-231 cells): 5 to 10 µM
- Cytotoxicity (MDA-MB-231 cells): + (20 % ≤ cytotoxicity < 50%)
- IC50 (4T1 cells): ≥ 10000 nM
- Cytotoxicity (4T1 cells): - (cytotoxicity < 20%)
- Cytotoxicity (RD cells; 2 day-treatment): + (20 % ≤ cytotoxicity < 50%)
- Cytotoxicity (RD cells; 4 day-treatment): - (cytotoxicity < 20%)
- IC50 (RD cells; 48 h, 2 day-treatment): 1 to 5 µM
- IC50 (RD cells; 96 h, 4 day-treatment): 1 to 5 µM
- IC50 (EoL-1 cells): ≥ 100 nM
- Cytotoxicity (EoL-1 cells): + (20 % ≤ cytotoxicity < 50%)

Compound: Cc1ccc(F)c(NC(=O)Nc2ccc(-c3cccc4[nH]nc(N)c34)cc2)c1 [Linifanib, reference compound]
- IC50 (HUVECs; commercial kinase inhibitors): < 100 nM
- Angiogenesis inhibition (HUVECs; commercial kinase inhibitors): + (50% > angiogenesis inhibition ≥ 20%)

Compound: CC(C)(C)c1cc(NC(=O)Nc2ccc(Oc3ccnc4c3OCC(=O)N4)cc2C(F)(F)F)n(-c2ccc(CCN3CCOCC3)cc2)n1 [Compound 053, 1-[5-tert-butyl-2-[4-(2-morpholinoethyl)phenyl]pyrazol-3-yl]-3-[4-[(3-oxo-4H-pyrido[3,2-b][1,4]oxazin-8-yl)oxy]-2-(trifluoromethyl)phenyl]urea]
- IC50 (MDA-MB-231 cells): 1 to 5 µM
- Cytotoxicity (MDA-MB-231 cells): ++ (50% ≤ cytotoxicity < 85%)
- IC50 (4T1 cells): < 1000 nM
- Cytotoxicity (4T1 cells): +++ (cytotoxicity ≥ 85%)
- IC50 (EoL-1 cells): 10 to 100 nM
- Cytotoxicity (EoL-1 cells): +++ (cytotoxicity ≥ 85%)
- IC50 (HUVECs; incubation 16 to 18 hours): < 100 nM
- Angiogenesis inhibition (HUVECs; incubation 16 to 18 hours): +++ (angiogenesis inhibition ≥ 80%)

Compound: COc1cc2nccc(Oc3ccc(NC(=O)Nc4cc(C)on4)c(Cl)c3)c2cc1OC [Tivozanib, reference compound]
- IC50 (MDA-MB-231 cells; commercial kinase inhibitors): 5 to 10 µM
- Cytotoxicity (MDA-MB-231 cells; commercial kinase inhibitors): ++ (50 % ≤ cytotoxicity < 85 %)
- IC50 (4T1 cells; commercial kinase inhibitors): 5000 to 10000 nM
- Cytotoxicity (4T1 cells; commercial kinase inhibitors): +++ (cytotoxicity ≥ 85 %)
- Cytotoxicity (RD cells; 2 day-treatment, commercial kinase inhibitors): - (cytotoxicity < 20 %)
- Cytotoxicity (RD cells; 4 day-treatment, commercial kinase inhibitors): - (cytotoxicity < 20 %)
- IC50 (RD cells; 48 h, 2 day-treatment, commercial kinase inhibitors): ≥ 10 µM
- IC50 (RD cells; 96 h, 4 day-treatment, commercial kinase inhibitors): ≥ 10 µM
- IC50 (HUVECs; commercial kinase inhibitors): 100 to 500 nM
- Angiogenesis inhibition (HUVECs; commercial kinase inhibitors): + (50% > angiogenesis inhibition ≥ 20%)

Compound: COc1cc2nccc(Oc3ccc(NC(=O)NC4CC4)c(Cl)c3)c2cc1C(N)=O [Lenvatinib, reference compound]
- IC50 (MDA-MB-231 cells; commercial kinase inhibitors): ≥ 10 µM
- Cytotoxicity (MDA-MB-231 cells; commercial kinase inhibitors): - (cytotoxicity < 20 %)
- IC50 (4T1 cells; commercial kinase inhibitors): 1000 to 5000 nM
- Cytotoxicity (4T1 cells; commercial kinase inhibitors): + (20 % ≤ cytotoxicity < 50 %)
- IC50 (EoL-1 cells; commercial kinase inhibitors): 1 to 10 nM
- Cytotoxicity (EoL-1 cells; commercial kinase inhibitors): +++ (cytotoxicity ≥ 85%)
- IC50 (HUVECs; commercial kinase inhibitors): < 100 nM
- Angiogenesis inhibition (HUVECs; commercial kinase inhibitors): ++ (80% > angiogenesis inhibition ≥ 50%)

Compound: CSc1cc(Oc2ccnc3c2OCC(=O)N3)ccc1NC(=O)Nc1ncc(C(C)(C)C)o1 [Compound 025]
- IC50 (EoL-1 cells): < 1 nM
- Cytotoxicity (EoL-1 cells): +++ (cytotoxicity ≥ 85%)
